In patent US20230242584A1, “NOVEL POLYPEPTIDES WITH SKIN WHITENING ACTIVITY AND USE THEREOF” (Metapore Co., Ltd., priority 2019, published 2023):

Tests used:
B16F10 cells = assay: Melanin assay (melanin inhibitory effect); format: cell-based; settings: 10 μM polypeptide, α-MSH 0.5 μM, 24 hours, absorbance 490 nm, control 10 μM arbutin, FIG. 1
Method: B16F10 cells (6×10^4 cells/well) were aliquoted into 6-well plates and incubated. After 12 hours, the medium was changed to a medium containing α-MSH (Sigma, 0.5 μM) and the test substance (each of the polypeptides or control substances of the present invention). Each 10 μM of polypeptides were treated. In addition, 10 μM of arbutin, which is widely known as a skin whitening ingredient, was used as a control. After incubation for 24 hours, cells were harvested. The number of cells was confirmed using a C-chip (disposable hemacytometer, […]). Cells (1×10^5 cells) were lysed with 1N NaOH at 70° C. for 1 hour. After centrifugation at 4,000 rpm for 5 minutes, the supernatant was harvested and the melanin content was measured. The absorbance of melanin was measured at 490 nm using a microplate reader (Synergy 2, BioTek).

tyrosinase = molecular target: T1, tyrosinase (Mus musculus, UniProt P11344); assay: Tyrosinase activity assay (tyrosinase inhibitory effect); format: cell-based; settings: 10 μM polypeptide, α-MSH 0.5 μM, 24 hours, B16F10 cell lysate with 5 mM L-DOPA; control 10 μM arbutin; FIG. 2
T1 construct: Cells were lysed with PBS buffer containing 1% Triton X-100 (Sigma); endogenous in cells; host or cells: B16F10 cells, stimulated with alpha-MSH
T1 sequence (P11344 19-533): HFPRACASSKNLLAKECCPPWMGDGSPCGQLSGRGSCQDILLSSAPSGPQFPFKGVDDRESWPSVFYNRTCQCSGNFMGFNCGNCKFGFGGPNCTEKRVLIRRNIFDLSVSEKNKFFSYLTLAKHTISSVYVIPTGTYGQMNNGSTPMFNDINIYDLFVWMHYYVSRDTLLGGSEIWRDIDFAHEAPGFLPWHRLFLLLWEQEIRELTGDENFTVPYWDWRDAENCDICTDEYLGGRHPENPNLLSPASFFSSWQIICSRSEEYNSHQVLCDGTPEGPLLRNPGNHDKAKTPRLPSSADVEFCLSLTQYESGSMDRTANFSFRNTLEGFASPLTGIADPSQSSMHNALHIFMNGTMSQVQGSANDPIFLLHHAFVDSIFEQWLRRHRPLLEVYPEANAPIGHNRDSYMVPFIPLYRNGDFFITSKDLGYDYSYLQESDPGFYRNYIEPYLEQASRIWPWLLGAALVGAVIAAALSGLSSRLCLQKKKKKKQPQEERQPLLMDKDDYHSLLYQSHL
Method: B16F10 cells (6×10^4 cells/well) were aliquoted into 6-well plates and incubated. After 12 hours, the medium was changed to a medium containing a-MSH (Sigma, 0.5 μM) and the test substance (each of the polypeptides or control substances of the present invention). Each 10 μM of polypeptides were treated. In addition, 10 μM of arbutin, which is widely known as a skin whitening ingredient, was used as a control. After incubation for 24 hours, cells were harvested. Cells were lysed with PBS buffer containing 1% Triton X-100 (Sigma). After centrifugation at 12,000 rpm for 20 minutes, the supernatant was harvested and the protein concentration was measured by BCA assay kit (Thermo Fisher Scientific). To measure tyrosinase activity, 50 μg of protein (protein contained in the supernatant) was incubated at 37° C. with 5 mM L-DOPA. Absorbance was measured at 490 nm using a microplate reader (Synergy 2, BioTek). Absorbance was measured every 10 minutes for 1 hour.

| Sequence | inhibitory effect of melanin production (B16F10 cells) | inhibitory effect of tyrosinase (tyrosinase) |
| --- | --- | --- |
| ADQIIEYLKQQVSLL (amino acid sequence of peptide for skin whitening (AIMP1 18aa - 32aa)) [Peptide S2] | better inhibitory effect of melanin production than arbutin | same level of the inhibitory effect of tyrosinase as arbutin |
| LKEKAILQATLREEK (peptide fragment from AIMP1(AIMP1 32aa - 46aa)) [Peptide S10] | completely absent | insignificant |
